The text below walks through data of ChEMBL document CHEMBL4627255, “Efficient synthesis of tert-butyl 3-cyano-3-cyclopropyl-2-oxopyrrolidine-4-carboxylates: Highly functionalized 2-pyrrolidinone enabling access to novel macrocyclic Tyk2 inhibitors” (Bioorg Med Chem Lett, 2020).

The target in assay [1] is T1, Non-receptor tyrosine-protein kinase TYK2 (Homo sapiens, UniProt P29597). Nature of the assay: Inhibition of TYK2 (unknown origin).
For assay [2], the target named is Tyrosine-protein kinase JAK1 (Homo sapiens, UniProt P23458). Nature of the assay: Inhibition of JAK1 (unknown origin).
Assay [3] is filed under the species Homo sapiens. The assay is described as follows: Selectivity index, ratio of IC50 for JAK1 (unknown origin) to IC50 for TYK2 (unknown origin).
The target of assay [4] is Tyrosine-protein kinase JAK2 (Homo sapiens, UniProt O60674). Nature of the assay: Inhibition of JAK2 (unknown origin).
For assay [5], the species on record is Homo sapiens. The assay is described as follows: Selectivity index, ratio of IC50 for JAK2 (unknown origin) to IC50 for TYK2 (unknown origin).
Assay [6] deals with T2, Tyrosine-protein kinase JAK3 (Homo sapiens, UniProt P52333).
T2 sequence (P52333 whole entry): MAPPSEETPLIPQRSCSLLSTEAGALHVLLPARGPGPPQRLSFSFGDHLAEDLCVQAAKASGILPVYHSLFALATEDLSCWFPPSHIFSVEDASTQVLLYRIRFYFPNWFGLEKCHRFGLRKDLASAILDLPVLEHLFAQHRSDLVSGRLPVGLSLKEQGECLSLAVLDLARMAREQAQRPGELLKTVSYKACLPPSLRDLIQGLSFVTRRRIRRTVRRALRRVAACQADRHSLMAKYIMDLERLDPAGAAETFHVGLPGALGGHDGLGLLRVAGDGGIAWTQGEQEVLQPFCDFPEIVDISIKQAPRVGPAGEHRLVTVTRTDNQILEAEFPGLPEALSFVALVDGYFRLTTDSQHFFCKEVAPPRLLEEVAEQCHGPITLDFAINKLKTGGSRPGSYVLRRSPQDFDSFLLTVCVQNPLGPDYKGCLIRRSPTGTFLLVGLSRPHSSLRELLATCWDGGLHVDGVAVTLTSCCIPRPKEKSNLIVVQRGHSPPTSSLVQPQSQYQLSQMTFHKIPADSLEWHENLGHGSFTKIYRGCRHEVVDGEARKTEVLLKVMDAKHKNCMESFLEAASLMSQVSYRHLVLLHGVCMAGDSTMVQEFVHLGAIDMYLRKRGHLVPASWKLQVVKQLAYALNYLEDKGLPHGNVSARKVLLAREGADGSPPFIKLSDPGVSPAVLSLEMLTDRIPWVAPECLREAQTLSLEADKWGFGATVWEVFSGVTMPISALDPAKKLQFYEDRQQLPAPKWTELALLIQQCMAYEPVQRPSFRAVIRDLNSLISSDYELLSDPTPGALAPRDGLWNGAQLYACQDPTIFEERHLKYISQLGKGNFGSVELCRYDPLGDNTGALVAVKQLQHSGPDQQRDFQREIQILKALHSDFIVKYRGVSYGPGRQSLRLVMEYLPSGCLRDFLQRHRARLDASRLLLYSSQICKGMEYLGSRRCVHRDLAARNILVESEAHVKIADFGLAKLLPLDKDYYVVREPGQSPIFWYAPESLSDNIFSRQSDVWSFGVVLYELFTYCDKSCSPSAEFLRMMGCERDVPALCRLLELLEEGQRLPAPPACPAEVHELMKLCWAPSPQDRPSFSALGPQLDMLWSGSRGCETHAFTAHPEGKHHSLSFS
The assay is described as follows: Inhibition of JAK3 (unknown origin).

Assay [7] is filed under the species Homo sapiens. Nature of the assay: Selectivity index, ratio of IC50 for JAK3 (unknown origin) to IC50 for TYK2 (unknown origin).
The target of assay [8] is T1, Non-receptor tyrosine-protein kinase TYK2. The assay is described as follows: Inhibition of TYK2 in human Jurkat cells by luciferase reporter gene assay. The class given is cell-based. Background: In a reporter assay the amount or activity of a reporter protein is the signal.

Molecules are shown by their SMILES.

Chain of Tyrosine-protein kinase JAK1 (P23458 whole entry): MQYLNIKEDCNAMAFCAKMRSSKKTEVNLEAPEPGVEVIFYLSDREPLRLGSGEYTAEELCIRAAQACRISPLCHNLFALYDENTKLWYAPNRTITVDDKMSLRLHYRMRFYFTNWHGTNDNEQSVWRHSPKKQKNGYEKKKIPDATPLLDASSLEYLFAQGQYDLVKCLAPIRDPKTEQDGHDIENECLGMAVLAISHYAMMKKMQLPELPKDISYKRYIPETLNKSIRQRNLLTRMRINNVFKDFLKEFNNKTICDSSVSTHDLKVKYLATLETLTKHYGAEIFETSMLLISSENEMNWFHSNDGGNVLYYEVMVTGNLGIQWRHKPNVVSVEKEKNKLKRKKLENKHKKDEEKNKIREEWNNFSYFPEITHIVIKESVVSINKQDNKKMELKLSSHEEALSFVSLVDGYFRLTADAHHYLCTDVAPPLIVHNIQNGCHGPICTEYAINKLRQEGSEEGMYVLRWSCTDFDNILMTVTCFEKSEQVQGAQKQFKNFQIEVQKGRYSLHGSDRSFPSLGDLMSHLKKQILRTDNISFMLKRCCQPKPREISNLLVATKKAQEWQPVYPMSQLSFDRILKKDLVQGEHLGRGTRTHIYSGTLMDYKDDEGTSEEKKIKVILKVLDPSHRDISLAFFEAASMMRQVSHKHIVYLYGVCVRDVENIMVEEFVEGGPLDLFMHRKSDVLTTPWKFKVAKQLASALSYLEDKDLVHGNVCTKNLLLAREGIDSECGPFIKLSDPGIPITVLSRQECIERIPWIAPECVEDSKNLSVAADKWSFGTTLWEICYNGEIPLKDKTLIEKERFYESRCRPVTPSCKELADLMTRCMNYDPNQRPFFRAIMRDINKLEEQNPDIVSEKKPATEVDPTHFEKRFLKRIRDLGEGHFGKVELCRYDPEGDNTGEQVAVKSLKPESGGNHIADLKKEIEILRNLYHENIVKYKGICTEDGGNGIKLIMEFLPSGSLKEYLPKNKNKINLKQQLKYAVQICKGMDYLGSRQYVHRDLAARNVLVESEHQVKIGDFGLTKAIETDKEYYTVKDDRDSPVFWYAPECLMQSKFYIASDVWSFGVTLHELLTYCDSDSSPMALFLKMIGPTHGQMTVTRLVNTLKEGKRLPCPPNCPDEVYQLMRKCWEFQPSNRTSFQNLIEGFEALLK
Chain of Tyrosine-protein kinase JAK2 (O60674 whole entry): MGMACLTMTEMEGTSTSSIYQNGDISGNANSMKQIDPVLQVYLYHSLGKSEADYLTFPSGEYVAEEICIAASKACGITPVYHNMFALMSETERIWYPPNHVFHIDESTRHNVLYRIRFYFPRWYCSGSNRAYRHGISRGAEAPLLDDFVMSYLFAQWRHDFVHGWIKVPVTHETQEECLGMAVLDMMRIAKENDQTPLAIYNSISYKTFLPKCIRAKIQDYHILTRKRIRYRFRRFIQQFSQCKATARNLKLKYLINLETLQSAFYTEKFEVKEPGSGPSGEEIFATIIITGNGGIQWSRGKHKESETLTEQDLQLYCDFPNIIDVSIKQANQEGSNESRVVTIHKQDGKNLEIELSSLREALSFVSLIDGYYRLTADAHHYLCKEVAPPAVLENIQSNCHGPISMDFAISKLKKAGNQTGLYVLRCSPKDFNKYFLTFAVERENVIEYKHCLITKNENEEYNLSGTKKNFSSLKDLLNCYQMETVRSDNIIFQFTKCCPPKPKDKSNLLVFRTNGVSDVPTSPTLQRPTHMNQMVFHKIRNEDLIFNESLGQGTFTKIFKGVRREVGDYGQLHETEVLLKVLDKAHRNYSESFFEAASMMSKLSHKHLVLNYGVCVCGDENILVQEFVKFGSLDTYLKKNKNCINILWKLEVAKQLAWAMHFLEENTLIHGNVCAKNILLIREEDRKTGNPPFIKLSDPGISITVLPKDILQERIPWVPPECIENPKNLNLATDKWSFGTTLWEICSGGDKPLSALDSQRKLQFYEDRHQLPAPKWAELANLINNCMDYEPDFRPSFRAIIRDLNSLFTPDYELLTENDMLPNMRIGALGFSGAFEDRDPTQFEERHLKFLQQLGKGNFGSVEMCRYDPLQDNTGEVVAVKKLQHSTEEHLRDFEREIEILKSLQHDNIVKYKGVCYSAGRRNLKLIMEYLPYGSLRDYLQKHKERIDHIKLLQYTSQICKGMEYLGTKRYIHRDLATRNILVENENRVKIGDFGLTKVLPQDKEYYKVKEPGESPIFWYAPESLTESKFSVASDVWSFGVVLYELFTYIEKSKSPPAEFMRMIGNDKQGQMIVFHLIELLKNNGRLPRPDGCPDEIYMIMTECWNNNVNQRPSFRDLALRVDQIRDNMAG
T1 sequence (P29597 whole entry): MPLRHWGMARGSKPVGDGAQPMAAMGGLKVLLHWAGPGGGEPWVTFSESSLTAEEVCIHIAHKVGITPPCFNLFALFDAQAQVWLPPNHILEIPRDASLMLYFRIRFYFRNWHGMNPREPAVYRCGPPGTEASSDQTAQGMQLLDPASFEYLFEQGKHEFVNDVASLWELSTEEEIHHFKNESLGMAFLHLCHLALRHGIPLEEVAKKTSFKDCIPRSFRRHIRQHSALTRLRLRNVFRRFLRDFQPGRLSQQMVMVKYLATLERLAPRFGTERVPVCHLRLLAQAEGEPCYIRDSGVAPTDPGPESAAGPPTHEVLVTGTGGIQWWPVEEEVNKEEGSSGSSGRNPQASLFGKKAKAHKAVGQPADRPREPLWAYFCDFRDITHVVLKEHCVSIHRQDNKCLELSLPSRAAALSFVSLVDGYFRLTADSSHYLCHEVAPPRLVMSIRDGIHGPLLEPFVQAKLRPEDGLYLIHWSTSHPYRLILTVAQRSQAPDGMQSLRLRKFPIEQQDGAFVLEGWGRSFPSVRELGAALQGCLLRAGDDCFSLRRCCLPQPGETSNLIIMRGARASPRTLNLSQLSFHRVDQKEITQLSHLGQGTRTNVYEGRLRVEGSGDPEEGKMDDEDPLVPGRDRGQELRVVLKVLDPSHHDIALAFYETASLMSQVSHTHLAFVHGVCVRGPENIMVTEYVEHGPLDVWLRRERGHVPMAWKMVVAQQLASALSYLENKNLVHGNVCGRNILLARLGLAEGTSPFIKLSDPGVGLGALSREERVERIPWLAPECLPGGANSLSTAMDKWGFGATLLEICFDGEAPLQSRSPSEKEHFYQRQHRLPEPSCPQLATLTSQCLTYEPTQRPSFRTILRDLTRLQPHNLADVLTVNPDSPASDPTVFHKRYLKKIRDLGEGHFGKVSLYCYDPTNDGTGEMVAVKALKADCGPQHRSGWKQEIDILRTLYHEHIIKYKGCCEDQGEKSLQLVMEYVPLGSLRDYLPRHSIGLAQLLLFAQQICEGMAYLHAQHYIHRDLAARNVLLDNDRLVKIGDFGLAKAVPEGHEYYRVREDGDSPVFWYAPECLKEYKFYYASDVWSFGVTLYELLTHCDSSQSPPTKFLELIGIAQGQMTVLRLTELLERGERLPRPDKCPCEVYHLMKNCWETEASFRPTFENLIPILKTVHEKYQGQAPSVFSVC

In general, IC50 refers to the midpoint of a concentration-inhibition curve. A low value points to greater potency. For `N#C[C@]1(C2CC2)C(=O)N2C[C@H]1COCC(=O)NCc1cccc(n1)Nc1cc2ccn1`, the IC50 in assay [1] was determined as 130 nM; in assay [2], 3000 nM; in assay [4], 1000 nM; in assay [6], 1900 nM; in assay [8], 1300 nM. The Ratio IC50 in the assay filed under Homo sapiens [3] stood at 23; in the assay filed under Homo sapiens [5] it was 7.7; in the assay listed under Homo sapiens [7] it was 15.
Turning to `N#C[C@]1(C2CC2)C(=O)N2C[C@H]1COCC(=O)NCCc1cccc(n1)Nc1cc2ccn1`, the IC50 was found to be 23 nM in assay [1]; 910 nM in assay [2]; 180 nM in assay [4]; 130 nM in assay [6]; 210 nM in assay [8]. For the same molecule, the Ratio IC50 turned out to be 40 in the assay filed under Homo sapiens [3], 7.8 in the assay listed under Homo sapiens [5] and 5.7 in the assay listed under Homo sapiens [7].
With `CN(C)C(=O)c1ccc(Nc2cc(N3CC[C@@](C#N)(C4CC4)C3=O)ccn2)nc1`, the IC50 in assay [1] was found to be 1.1 nM. In other words, the single-digit nanomolar range.
As for `N#C[C@]1(C2CC2)C(=O)N2C[C@H]1COCCCCOCc1cccc(n1)Nc1cc2ccn1`, the IC50 in assay [1] is 4.9 nM; in assay [2] it was 710 nM; in assay [4], 130 nM; in assay [6] it was 400 nM; in assay [8] it was 210 nM. Besides, the Ratio IC50 in the assay listed under Homo sapiens [3] was determined as 140; in the assay listed under Homo sapiens [5], 27; in the assay filed under Homo sapiens [7] it was 82.
With `N#C[C@]1(C2CC2)C(=O)N2C[C@H]1COC/C=C/COCc1cccc(n1)Nc1cc2ccn1`, the IC50 in assay [1] is 12 nM; in assay [2], 360 nM; in assay [4], 140 nM; in assay [6], 180 nM; in assay [8], 440 nM. In addition, the Ratio IC50 in the assay listed under Homo sapiens [3] was 30; in the assay listed under Homo sapiens [5], 12; in the assay filed under Homo sapiens [7], 15.
Consider `N#C[C@]1(C2CC2)C(=O)N2C[C@H]1COC/C=C\COCc1cccc(n1)Nc1cc2ccn1`, for which the IC50 in assay [1] was determined as 5.2 nM; in assay [2] it was 580 nM; in assay [4], 130 nM; in assay [6], 270 nM; in assay [8], 260 nM. The Ratio IC50 in the assay filed under Homo sapiens [3] was 110; in the assay listed under Homo sapiens [5] it was 25; in the assay filed under Homo sapiens [7], 52.
As to `N#C[C@]1(C2CC2)C(=O)N2C[C@H]1COCC(=O)NCCCc1cccc(n1)Nc1cc2ccn1`, the IC50 stood at 5.5 nM in assay [1]; 130 nM in assay [2]; 100 nM in assay [4]; 43 nM in assay [6]; 180 nM in assay [8]. Moreover, the figures for the Ratio IC50 in the assay listed under Homo sapiens [3], in the assay listed under Homo sapiens [5] and in the assay listed under Homo sapiens [7] were 24, 18 and 7.8, respectively.
